From patent publication US7713994B2 (Wyeth LLC, priority 2005, dated 2010) come the findings set out here.

Read-outs that look alike come from different tables or passages of the source.

One test has as its system HCT-116. The test can be described thus: Cytotoxicity assay (SRB), HCT-116. It is filed as cell-based. Conditions: HCT116 cells, SRB, read-out: In Vitro Cellular Activity IC50 HCT116. The gist of the method: (§1)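 Plate cells, let them attach overnight, add compound dilutions in RPMI 1640/5% FBS, and incubate 3 days (BT474 6 days). Then fix with TCA, stain with SRB, dissolve the dye in Tris and read at 540 nm.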

Another test deals with MCF-7. Put plainly: Cytotoxicity assay (SRB), MCF-7. The class given is cell-based. Conditions: MCF-7 cells, SRB, read-out: In Vitro Cellular Activity IC50 MCF-7. The gist of the method: as §1
For the next test, the target named is T1, cyclin B/CDK1 enzyme (Homo sapiens, UniProt P06493).
T1 construct: purchased New England BioLabs; host or cells: Sf9 insect cells, recombinant baculovirus
The test can be described thus: CDK1 ELISA kinase assay (phospho-Rb ser 795 detection). The class given is biochemical. The gist of the method: (§2)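 Wells were coated overnight with GST-Rb C-terminal fragment, then blocked. Compound (10 ug/ml final) and cyclin/CDK enzyme from baculovirus-infected Sf9 cells with 200 μM ATP reacted 1 h at 30° C. Ser795 phosphorylation was detected by ELISA at 450 nm.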

A further test concerns the target T2, cyclin D1/cdk 4 enzyme (Homo sapiens, UniProt P11802).
T2 construct: made in house; host or cells: Sf9 insect cells, recombinant baculovirus
Put plainly: CDK4 ELISA kinase assay (phospho-Rb ser 795 detection). It is filed as biochemical. The gist of the method: as §2

A further test addresses T3, cyclin E/CDK2 enzyme (Homo sapiens, UniProt P24941).
T3 construct: made in house; host or cells: Sf9 insect cells, recombinant baculovirus
The test can be described thus: CDK2 ELISA kinase assay (phospho-Rb ser 795 detection). It is filed as biochemical. The gist of the method:
as §2

A further test relates to BT474. The test can be described thus: Cytotoxicity assay (SRB), BT474. It is filed as cell-based. In outline: as §1
The subject of the next test is LoVo. The test can be described thus: Cytotoxicity assay (SRB), LoVo. It is filed as cell-based. The conditions noted are these: LoVo cells, SRB, read-out: In Vitro Cellular Activity IC50 LOVO. The gist of the method: as §1
Setting [1] is: Homo sapiens, HCT-116, 72 h, 3 days.
The mark [2] stands for this setting: Homo sapiens, MCF7, 72 h, 3 days.
Where [3] appears, read: In Vitro Enzyme Assay, cyclin B/CDK1, read-out: CDK1 IC50.
The mark [4] stands for this setting: In Vitro Enzyme Assay, cyclin D1/cdk 4, read-out: CDK4 IC50.
Where [5] appears, read: In Vitro Enzyme Assay, cyclin E/CDK2, read-out: CDK2 IC50.
Where [6] appears, read: Homo sapiens, BT-474, 144 h, BT474 cells, 6 days, SRB; read-out: In Vitro Cellular Activity IC50 BT474.
Setting [7] is: Homo sapiens, LoVo, 72 h, 3 days.
The mark [8] stands for this setting: Homo sapiens, HCT-116, 72 h, three days.
Where [9] appears, read: Homo sapiens, MCF7, 72 h, three days.
[10] abbreviates: In Vitro Enzyme Assays, read-out: CDK1 IC50.
The mark [11] stands for this setting: In Vitro Enzyme Assays, 200 μM ATP, read-out: CDK4 IC50.
The mark [12] stands for this setting: In Vitro Enzyme Assays, read-out: CDK2 IC50.
The mark [13] stands for this setting: Homo sapiens, BT-474, 144 h, BT474 cells, SRB, 6 days; read-out: In Vitro Cellular Activity IC50 BT474.
Setting [14] is: Homo sapiens, LoVo, 72 h, three days.

T2 sequence (P11802 whole entry, species assumed): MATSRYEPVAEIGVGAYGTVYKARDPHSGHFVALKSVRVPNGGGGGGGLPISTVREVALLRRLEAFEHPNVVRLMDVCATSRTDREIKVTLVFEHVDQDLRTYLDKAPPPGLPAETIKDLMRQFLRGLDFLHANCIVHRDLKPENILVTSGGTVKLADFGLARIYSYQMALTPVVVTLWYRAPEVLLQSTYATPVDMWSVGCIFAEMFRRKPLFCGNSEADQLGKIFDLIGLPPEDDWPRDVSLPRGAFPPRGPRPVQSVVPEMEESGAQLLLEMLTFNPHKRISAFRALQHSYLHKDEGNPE
T2 sequence (P24385 whole entry partner, species assumed): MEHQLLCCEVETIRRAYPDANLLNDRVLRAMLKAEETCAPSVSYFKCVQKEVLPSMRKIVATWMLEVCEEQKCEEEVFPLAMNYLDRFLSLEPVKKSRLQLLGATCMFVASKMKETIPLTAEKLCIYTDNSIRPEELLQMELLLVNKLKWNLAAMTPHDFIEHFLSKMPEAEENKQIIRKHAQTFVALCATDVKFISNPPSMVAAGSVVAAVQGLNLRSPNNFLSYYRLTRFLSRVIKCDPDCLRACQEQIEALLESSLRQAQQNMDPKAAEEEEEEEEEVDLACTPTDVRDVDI
T1 sequence (P06493 whole entry): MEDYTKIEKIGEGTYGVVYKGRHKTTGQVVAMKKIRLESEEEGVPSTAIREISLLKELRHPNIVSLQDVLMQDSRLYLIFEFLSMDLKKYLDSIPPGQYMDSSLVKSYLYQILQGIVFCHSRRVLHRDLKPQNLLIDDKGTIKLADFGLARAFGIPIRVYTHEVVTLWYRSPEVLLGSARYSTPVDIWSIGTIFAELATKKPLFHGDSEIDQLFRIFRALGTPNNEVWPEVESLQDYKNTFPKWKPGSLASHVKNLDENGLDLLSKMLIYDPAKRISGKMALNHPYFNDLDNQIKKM
T1 sequence (P14635 whole entry partner): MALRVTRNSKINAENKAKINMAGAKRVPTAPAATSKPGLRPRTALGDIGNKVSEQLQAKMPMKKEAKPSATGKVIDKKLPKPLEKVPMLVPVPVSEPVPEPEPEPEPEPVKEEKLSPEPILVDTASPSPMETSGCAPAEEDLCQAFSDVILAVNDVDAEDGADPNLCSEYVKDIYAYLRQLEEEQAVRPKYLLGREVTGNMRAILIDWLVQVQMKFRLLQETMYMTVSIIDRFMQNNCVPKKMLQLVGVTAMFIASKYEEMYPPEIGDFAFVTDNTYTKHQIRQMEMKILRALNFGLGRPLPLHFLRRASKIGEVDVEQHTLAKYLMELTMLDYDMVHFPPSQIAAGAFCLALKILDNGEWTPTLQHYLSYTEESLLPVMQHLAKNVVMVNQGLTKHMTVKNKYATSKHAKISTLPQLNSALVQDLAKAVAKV

Regarding `O=C1NC(=O)c2ccc(-c3ccccc3Cl)cc2C1=CNCc1ccc(O)c(O)c1` [Example 780, 6-(2-Chloro-phenyl)-4-[(3,4-dihydroxy-benzylamino)-methylene]-4H-isoquinoline-1,3-dione], the IC50 in the test with HCT-116 (setting [1]) was determined as 14.4 µM; in the test with MCF-7 (setting [2]), 18.9 µM; on cyclin B/CDK1 enzyme (setting [3]) it was 23.1 µM; at cyclin D1/cdk 4 enzyme (setting [4]), 0.67 µM; on cyclin E/CDK2 enzyme (setting [5]), 3.8 µM; in the test on BT474 (setting [6]) it was 17.7 µM. Further, in the test with LoVo (setting [7]), the IC50 came to 18.2 µM.

Regarding `O=C1NC(=O)c2ccc(I)cc2/C1=C/Nc1ccc(C2CCCN2CCO)cc1` (stereo not drawn) [Example 464, 4-({4-[1-(2-Hydroxy-ethyl)-pyrrolidin-2-yl]-phenylamino}-methylene)-6-iodo-4H-isoquinoline-1,3-dione], the IC50 was 3.2 µM with HCT-116 (setting [1]); 2.4 µM in the test on MCF-7 (setting [2]); over 50 µM at cyclin B/CDK1 enzyme (setting [3]); 0.14 µM at cyclin D1/cdk 4 enzyme (setting [4]); over 50 µM on cyclin E/CDK2 enzyme (setting [5]); 6.6 µM in the test on BT474 (setting [6]). Besides, the IC50 with LoVo (setting [7]) worked out at 4.6 µM.

With `CN(CCO)c1ccc(N/C=C2\C(=O)NC(=O)c3ccc(Br)cc32)cc1` [Example 244, (4Z)-6-Bromo-4-[({4-[(2-hydroxyethyl)(methyl)amino]phenyl}amino)methylene]isoquinoline-1,3(2H,4H)-dione], the IC50 in the test with HCT-116 (setting [8]) was 4.9 µM; in the test with MCF-7 (setting [9]) it was 19 µM; on cyclin B/CDK1 enzyme (setting [10]), over 50 µM; on cyclin D1/cdk 4 enzyme (setting [11]), 45.5 µM; at cyclin E/CDK2 enzyme (setting [12]) it was over 50 µM; in the test on BT474 (setting [13]) it was 9.4 µM. In addition, in the test on LoVo (setting [14]), the IC50 was 15 µM.

For the compound `O=C1NC(=O)c2ccc(-c3ccsc3)cc2/C1=C/Nc1ccc(CN2CCCCC2)cc1` [Example 104, (4Z)-4-({[4-(Piperidin-1-ylmethyl)phenyl]amino}methylene)-6-thien-3-ylisoquinoline-1,3(2H,4H)-dione], the concentration for half-maximal inhibition (IC50) is 1 µM in the test on HCT-116 (setting [8]); 3.4 µM in the test with MCF-7 (setting [9]); over 50 µM on cyclin B/CDK1 enzyme (setting [10]); 0.05 µM on cyclin D1/cdk 4 enzyme (setting [11]); over 50 µM at cyclin E/CDK2 enzyme (setting [12]); 3 µM in the test on BT474 (setting [13]). For the same compound, the IC50 with LoVo (setting [14]) was found to be 1.3 µM.

As to “6-Benzofuran-2-yl-4-[(3,4-dihydroxy-benzylamino)-methylene]-4H-isoquinoline-1,3-dione [Example 643]”, the IC50 in the test on HCT-116 (3 days) was 14.9 µM; in the test on MCF-7 (3 days), 9.2 µM; at cyclin B/CDK1 enzyme (setting [3]) it was over 50 µM; at cyclin D1/cdk 4 enzyme (setting [4]) it was 3.5 µM; on cyclin E/CDK2 enzyme (setting [5]), over 50 µM; in the test on BT474 (BT474 cells, 6 days, SRB; read-out: In Vitro Cellular Activity IC50 BT474) it was 13.4 µM. The IC50 in the test with LoVo (3 days) was 11.7 µM.

For `O=C1NC(=O)c2ccc(Br)cc2/C1=C/NCCCN1CCCC1` [Example 309, (Z)-6-Bromo-4-((3-(pyrrolidin-1-yl)propylamino)methylene)isoquinoline-1,3(2H,4H)-dione], the IC50 is 26 µM with HCT-116 (setting [8]); 20 µM in the test on MCF-7 (setting [9]); over 50 µM on cyclin B/CDK1 enzyme (setting [10]); 14.7 µM at cyclin D1/cdk 4 enzyme (setting [11]); over 50 µM on cyclin E/CDK2 enzyme (setting [12]); 26 µM in the test with BT474 (setting [13]). Besides, the IC50 in the test with LoVo (setting [14]) worked out at 15 µM.

Consider `CN(C)CCOc1ccc(N/C=C2\C(=O)NC(=O)c3ccc(Br)cc32)cc1` [Example 258, (4Z)-6-Bromo-4-[({4-[2-(dimethylamino)ethoxy]phenyl}amino)methylene]isoquinoline-1,3(2H,4H)-dione], for which the IC50 was 3.5 µM in the test with HCT-116 (setting [8]); 6.7 µM with MCF-7 (setting [9]); over 50 µM at cyclin B/CDK1 enzyme (setting [10]); 0.48 µM at cyclin D1/cdk 4 enzyme (setting [11]); over 50 µM at cyclin E/CDK2 enzyme (setting [12]); 8.3 µM with BT474 (setting [13]). For the same compound, in the test with LoVo (setting [14]), the IC50 worked out at 5.3 µM.

For the compound `CN1CCN(c2ccc(NC=C3C(=O)NC(=O)c4ccc(-c5ccc6[nH]ccc6c5)cc43)cc2)CC1` [Example 671, 6-(1H-Indol-5-yl)-4-{[4-(4-methyl-piperazin-1-yl)-phenylamino]-methylene}-4H-isoquinoline-1,3-dione], the IC50 came to 2.3 µM with HCT-116 (setting [1]); 4.4 µM in the test on MCF-7 (setting [2]); 11.8 µM at cyclin B/CDK1 enzyme (setting [3]); 2 µM on cyclin D1/cdk 4 enzyme (setting [4]); 38 µM at cyclin E/CDK2 enzyme (setting [5]); 2.8 µM in the test with BT474 (setting [6]). Also, in the test with LoVo (setting [7]), the IC50 is 4.1 µM.

Take `O=C1NC(=O)c2ccc(I)cc2/C1=C/Nc1ccc(N2CCN(CC3CC3)CC2)nc1` [Example 415, (4Z)-4-[({6-[4-(Cyclopropylmethyl)piperazin-1-yl]pyridin-3-yl}amino)methylene]-6-iodoisoquinoline-1,3(2H,4H)-dione]: the concentration for half-maximal inhibition (IC50) with HCT-116 (setting [1]) was 1.2 µM; with MCF-7 (setting [2]), 3.6 µM; on cyclin B/CDK1 enzyme (setting [10]), over 50 µM; on cyclin D1/cdk 4 enzyme (setting [11]), 1.5 µM; at cyclin E/CDK2 enzyme (setting [12]), over 50 µM; with BT474 (setting [6]), 2.9 µM. In the test with LoVo (setting [7]), the IC50 was 2 µM.

For the compound `CC(=O)Oc1cc(CN/C=C2\C(=O)NC(=O)c3ccc(Br)cc32)cc2c1OC(C)(C)O2` [Example 872, 6-({[(Z)-(6-Bromo-1,3-dioxo-2,3-dihydroisoquinolin-4(1H)-ylidene)methyl]amino}methyl)-2,2-dimethyl-1,3-benzodioxol-4-yl acetate], the IC50 with HCT-116 (setting [1]) was 28.6 µM; in the test with MCF-7 (setting [2]) it was 34.8 µM; at cyclin B/CDK1 enzyme (In Vitro Enzyme Assay, read-out: CDK1 IC50), 1.2 µM; at cyclin D1/cdk 4 enzyme (In Vitro Enzyme Assay, read-out: CDK4 IC50) it was 34.7 µM; on cyclin E/CDK2 enzyme (In Vitro Enzyme Assay, read-out: CDK2 IC50), 23.6 µM; in the test on BT474 (setting [6]), over 50 µM. The IC50 with LoVo (setting [7]) worked out at 47.1 µM.

For the compound `O=C1NC(=O)c2ccc(-c3ccoc3)cc2/C1=C/Nc1ccc(CN2CCC[C@H]2CO)cc1` [Example 463, 6-Furan-3-yl-4-{[4-(2-hydroxymethyl-pyrrolidin-1-ylmethyl)-phenylamino]-methylene}-4H-isoquinoline-1,3-dione], the IC50 was 2.3 µM with HCT-116 (setting [1]); 0.9 µM in the test on MCF-7 (setting [2]); over 50 µM at cyclin B/CDK1 enzyme (setting [3]); 0.06 µM on cyclin D1/cdk 4 enzyme (setting [4]); over 50 µM at cyclin E/CDK2 enzyme (setting [5]); 1.7 µM in the test with BT474 (setting [6]). Further, the IC50 with LoVo (setting [7]) came out at 2 µM.

On to `CCCOc1ccc(CN/C=C2\C(=O)NC(=O)c3ccc(Br)cc32)cc1O` [Example 130, (4Z)-6-Bromo-4-{[(3-hydroxy-4-propoxybenzyl)amino]methylene}isoquinoline-1,3(2H,4H)-dione], for which the IC50 in the test on HCT-116 (setting [8]) was 0.73 µM; in the test with MCF-7 (setting [9]), 4 µM; on cyclin B/CDK1 enzyme (setting [10]) it was 42.5 µM; on cyclin D1/cdk 4 enzyme (setting [11]), 0.35 µM; on cyclin E/CDK2 enzyme (setting [12]), 34.5 µM; in the test with BT474 (setting [13]), 0.65 µM. The IC50 in the test with LoVo (setting [14]) amounted to 0.94 µM.

For `CN1CCN(C2CCC(NC=C3C(=O)NC(=O)c4ccc(I)cc43)CC2)CC1` (stereo not drawn) [Example 360, 6-Iodo-4-{[4-(4-methyl-piperazin-1-yl)-cyclohexylamino]-methylene}-4H-isoquinoline-1,3-dione], the 50% inhibitory concentration (IC50) with HCT-116 (setting [8]) was 9.6 µM; with MCF-7 (setting [9]) it was 8.9 µM; on cyclin B/CDK1 enzyme (setting [10]), over 50 µM; on cyclin D1/cdk 4 enzyme (setting [11]) it was 0.46 µM; at cyclin E/CDK2 enzyme (setting [12]) it was over 50 µM; with BT474 (setting [13]), 16 µM. Further, the concentration for half-maximal inhibition (IC50) in the test on LoVo (setting [14]) amounted to 9.6 µM.

On to `O=C1NCc2cc(Br)ccc2C1=CNc1ccc(CCO)cc1` [Example 863, 7-Bromo-4-{[4-(2-hydroxy-ethyl)-phenylamino]-methylene}-1,4-dihydro-2H-isoquinolin-3-one], for which the IC50 amounted to 11.2 µM in the test on HCT-116 (setting [1]); 16.3 µM in the test with MCF-7 (setting [2]); 37.1 µM at cyclin B/CDK1 enzyme (setting [3]); 20.1 µM at cyclin D1/cdk 4 enzyme (setting [4]); 18 µM on cyclin E/CDK2 enzyme (setting [5]); 31.1 µM with BT474 (setting [6]). In the test with LoVo (setting [7]), the IC50 amounted to 10.2 µM.

Consider `CCCOc1cnc(CNC=C2C(=O)NC(=O)c3ccc(Br)cc32)cc1O` [Example 365, 4-{[(4-Hydroxy-5-propoxy-pyridin-2-ylmethyl)-amino]-methylene}-6-bromo-4H-isoquinoline-1,3-dione], for which the IC50 is 1.3 µM in the test with HCT-116 (setting [8]); 1.2 µM in the test with MCF-7 (setting [9]); over 50 µM at cyclin B/CDK1 enzyme (setting [10]); 0.07 µM at cyclin D1/cdk 4 enzyme (setting [11]); 1.9 µM on cyclin E/CDK2 enzyme (setting [12]); 0.76 µM in the test on BT474 (setting [13]). Further, the IC50 with LoVo (setting [14]) is 1 µM.
